Patent US20240000075A1, “FUNGICIDAL ARYL AMIDINES” (CORTEVA AGRISCIENCE LLC, priority 2020, published 2024)
Where two headings read alike, the source gives them in different places.

Tests used:
Zymoseptoria tritici = test: Septoria leaf blotch of wheat, whole-plant fungicidal activity (SEPTTR); assay type: in vivo, Zymoseptoria tritici on wheat plants (variety 'Yuma'); conditions: read-out: % Disease Control Rating SEPTTR
Protocol: Example A: Evaluation of Fungicidal Activity: Septoria Leaf Blotch of Wheat (Zymoseptoria tritici; Bayer Code […]) Technical grades of materials were dissolved in acetone, which were then mixed with nine volumes of water (H2O) containing 110 ppm Triton X-100. The fungicide solutions were applied onto wheat seedlings using an automated booth sprayer to run-off. All sprayed plants were allowed to air dry prior to further handling. All fungicides were evaluated using the aforementioned method for their activity vs. all target diseases, unless stated otherwise. Wheat plants (variety 'Yuma') were grown from seed in a greenhouse in soil-less potting mix until the first leaf was fully emerged, with 7-10 seedlings per pot. These plants were inoculated with an aqueous spore suspension of Zymoseptoria tritici either 3 days prior to fungicide treatment (3 day curative; 3DC) or 1 day after fungicide treatment (1 day protectant; 1DP). After inoculation the plants were kept in 100% relative humidity for three days to permit spores to germinate and infect the leaf. The plants were then transferred to a greenhouse for disease to develop. When disease symptoms were fully expressed on the 1st leaves of untreated plants, infection levels were assessed on a scale of 0 to 100 percent disease severity. Percent disease control was calculated using the ratio of disease severity on treated plants relative to untreated plants.

Puccinia triticina = test: Wheat brown rust, whole-plant fungicidal activity (PUCCRT); assay type: in vivo, Puccinia triticina on wheat plants (variety 'Yuma'); conditions: 24 h, 1DP (1 day protectant), read-out: % Disease Control Rating PUCCRT
Protocol: Technical grades of materials were dissolved in acetone, which were then mixed with nine volumes of water (H2O) containing 110 ppm Triton X-100. The fungicide solutions were applied onto wheat seedlings using an automated booth sprayer to run-off. All sprayed plants were allowed to air dry prior to further handling. All fungicides were evaluated using the aforementioned method for their activity vs. all target diseases, unless stated otherwise.
Example B: Evaluation of Fungicidal Activity: Wheat Brown Rust (Puccinia triticina; Synonym: Puccinia recondita f sp. tritici; Bayer Code PUCCRT)
Wheat plants (variety ‘Yuma’) were grown from seed in a greenhouse in soil-less potting mix until the first leaf was fully emerged, with 7-10 seedlings per pot. These plants were inoculated with an aqueous spore suspension of Puccinia triticina after fungicide treatments. After inoculation, the plants were kept in a dark dew room with 100% relative humidity overnight to permit spores to germinate and infect the leaf. The plants were then transferred to a greenhouse for disease to develop. Fungicide formulation, application and disease assessment followed the procedures as described in Example A.

Phakopsora pachyrhizi = test: Asian soybean rust, whole-plant fungicidal activity (PHAKPA); assay type: in vivo; conditions: read-out: % Disease Control Rating PHAKPA
Protocol: Example C: Evaluation of Fungicidal Activity: Asian Soybean Rust (Phakopsora pachyrhizi; Bayer Code […]) Technical grades of materials were dissolved in acetone, which were then mixed with nine volumes of H2O containing 0.011% Tween-20. The fungicide solutions were applied onto soybean seedlings using an automated booth sprayer to run-off. All sprayed plants were allowed to air dry prior to further handling. Soybean plants (variety 'Williams 82') were grown in soil-less potting mix, with one plant per pot. Ten-day-old seedlings were used for testing. Plants were inoculated as described in Example A. Plants were incubated for 24 h in a dark dew room with 100% relative humidity then transferred to a growth room for disease to develop. Fungicide formulation and application were made as described in Example A. When disease symptoms were fully expressed, disease severity was assessed on the sprayed leaves on a scale of 0 to 100 percent. Percent disease control was calculated using the ratio of disease severity on treated plants relative to untreated plants.

Rhynchosporium commune = test: Leaf blotch of barley, whole-plant fungicidal activity (RHYNSE); assay type: in vivo; conditions: 24 h, 1DP (1 day protectant), read-out: % Disease Control Rating RHYNSE
Protocol: Technical grades of materials were dissolved in acetone, which were then mixed with nine volumes of water (H2O) containing 110 ppm Triton X-100. The fungicide solutions were applied onto wheat seedlings using an automated booth sprayer to run-off. All sprayed plants were allowed to air dry prior to further handling. All fungicides were evaluated using the aforementioned method for their activity vs. all target diseases, unless stated otherwise. Example D: Evaluation of Fungicidal Activity: Leaf Blotch of Barley (Rhynchosporium commune; Bayer Code […]) Barley plants (variety 'Harrington') were grown from seed in a greenhouse in soil-less potting mix until the first leaf was fully emerged, with 7-10 seedlings per pot. These plants were inoculated with an aqueous spore suspension of Rhynchosporium commune after fungicide treatments. After inoculation, the plants were kept in a dark dew room with 100% relative humidity for two days to permit spores to germinate and infect the leaf. The plants were then transferred to a greenhouse for disease to develop. Fungicide formulation and application were made as described in Example A. Disease assessment was conducted as described in Example A.

Structure (SMILES)	pest or weed control at 200 ppm (Zymoseptoria tritici; 24 h, 1DP (1 day protectant))	pest or weed control at 200 ppm (Zymoseptoria tritici; 72 h, 3DC (3 day curative))	pest or weed control at 200 ppm (Puccinia triticina)	pest or weed control at 200 ppm (Phakopsora pachyrhizi; 24 h, 1DP (1 day protectant))	pest or weed control at 200 ppm (Phakopsora pachyrhizi; 72 h, 3DC (3 day curative))	pest or weed control at 200 ppm (Rhynchosporium commune)
Cc1cc(C(=O)CC2CCCCC2)c(C)cc1/N=C(\S)N(C)Cc1ccccc1 [Compound 53]	< 20%	< 20%	< 20%	< 20%	< 20%	< 20%
Cc1cc(C(=O)CC2CCCCC2)c(C)cc1/N=C(\S)N(C)CC(F)(F)F [Compound 46]	< 20%	< 20%	< 20%	20 to 50%	< 20%	< 20%
CCN(C)/C=N/c1cc(C)c(C(=O)Cc2cccc(OC(F)F)c2)cc1C [Compound 84]	< 20%	< 20%	> 85%	> 85%	> 85%	> 85%
CCN(C)/C(C)=N/c1cc(C)c(C(=O)CC2CCCC2)cc1C [Compound 90]	< 20%	< 20%	> 85%	> 85%	> 85%	20 to 50%
Cc1cc(C(=O)CC2CCCCC2)c(C)cc1/N=C(\S)N1CCCC1 [Compound 49]	20 to 50%	< 20%	> 85%	> 85%	50 to 85%	< 20%
CCN(C)/C=N/c1cc(C)c(C(=O)Cc2cccc(OC(F)(F)F)c2)cc1C [Compound 34]	50 to 85%	< 20%	> 85%	> 85%	> 85%	> 85%
CCN(C)/C=N/c1cc(F)c(C(=O)CC2CCCC2)cc1C [Compound 30]	< 20%	< 20%	50 to 85%	> 85%	> 85%	< 20%
CCN(C)/C(C)=N/c1cc(C)c(C(=O)Cc2c(F)cc(F)cc2F)cc1C [Compound 86]	< 20%	< 20%	> 85%	> 85%	> 85%	< 20%
CCN(C)/C=N/c1cc(C(F)(F)F)c(C(=O)C2CCC2)cc1C [Compound 98]			< 20%	20 to 50%	20 to 50%	
CCN(C)/C=N/c1cc(OC)c(C(=O)CC2CCCCC2)cc1C [Compound 72]	< 20%	< 20%	> 85%	> 85%	> 85%	< 20%
CCN(C)/C=N/c1cc(C)c(C(=O)Cc2c(F)cc(F)cc2F)cc1OC [Compound 89]	< 20%	< 20%	> 85%	50 to 85%	20 to 50%	20 to 50%
CCN(C)/C=N/c1ccc(C(=O)Cc2c(F)cc(F)cc2F)cc1C [Compound 104]			> 85%	50 to 85%	> 85%	
CCN(C)/C(S)=N/c1cc(C)c(C(=O)Cc2c(F)cc(F)cc2F)cc1C [Compound 93]	50 to 85%	< 20%	> 85%	> 85%	> 85%	> 85%
CC/C(=N\c1cc(C)c(C(=O)Cc2c(F)cc(F)cc2F)cc1C)N(C)CC [Compound 87]	< 20%	< 20%	> 85%	50 to 85%	20 to 50%	< 20%
